Results from the supplement of paper PMC13207355.
Where a name gives a salt, the structure may show the parent alone.

How the values were obtained:
Conditions in all cases: exposure time: 72 h
[1] = system: E13 (patient-derived glioblastoma stem cells of classical subtype); assay: surviving fraction (nuclei count normalised to DMSO); higher = more cells surviving (less toxic)
[2] = system: E21 (patient-derived glioblastoma stem cells of mesenchymal subtype); assay: as above
[3] = system: E28 (patient-derived glioblastoma stem cells of classical subtype); assay: as above
[4] = system: E31 (patient-derived glioblastoma stem cells of proneural subtype); assay: as above
[5] = system: E34 (patient-derived glioblastoma stem cells of proneural subtype); assay: as above
[6] = system: E57 (patient-derived glioblastoma stem cells of mesenchymal subtype); assay: as above
[7] = system: FT3469 (normal neural stem cell line); assay: as above
[8] = system: E13; assay: phenotypic distance (Euclidean, principal components) from DMSO controls (arbitrary units); higher = stronger morphological change
[9] = system: E21; assay: as above
[10] = system: E28; assay: as above
[11] = system: E31; assay: as above
[12] = system: E34; assay: as above
[13] = system: E57; assay: as above
[14] = system: FT3469; assay: as above
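For phenotypic distance (Euclidean, principal components) from DMSO controls in this document: cell Painting imaging in 384-well plates, CellProfiler features reduced to at least 20 principal components, Euclidean distance versus same-plate DMSO vehicle wells (0.1% v/v), median over six images per well.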
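For surviving fraction (nuclei count normalised to DMSO) in this document: nuclei counted by high-content imaging of Hoechst-stained cells in laminin-coated 384-well plates, relative to 0.1% DMSO vehicle wells, with staurosporine as cell-death control.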

CC(C)NCC(O)COc1cccc2ccccc12 (centres undefined) [Propranolol hydrochloride]
Conditions	phenotypic distance	surviving fraction
[1], 4.1 nM	–	0.971
[1], 12.3 nM	–	1.08
[1], 37 nM	–	0.923
[1], 111.1 nM	–	1.07
[1], 333.3 nM	–	1.1
[1], 1000 nM	–	1.03
[1], 3000 nM	–	0.991
[2], 4.1 nM	–	0.912
[2], 12.3 nM	–	0.926
[2], 37 nM	–	0.978
[2], 111.1 nM	–	1.01
[2], 333.3 nM	–	1.01
[2], 1000 nM	–	1.1
[2], 3000 nM	–	1
[3], 4.1 nM	–	0.98
[3], 12.3 nM	–	1.05
[3], 37 nM	–	0.949
[3], 111.1 nM	–	1.12
[3], 333.3 nM	–	1.03
[3], 1000 nM	–	1.13
[3], 3000 nM	–	1.03
[4], 4.1 nM	–	0.954
[4], 12.3 nM	–	0.993
[4], 37 nM	–	1.1
[4], 111.1 nM	–	1.08
[4], 333.3 nM	–	0.917
[4], 1000 nM	–	0.96
[4], 3000 nM	–	1.05
[5], 4.1 nM	–	0.945
[5], 12.3 nM	–	0.847
[5], 37 nM	–	0.941
[5], 111.1 nM	–	1.06
[5], 333.3 nM	–	0.876
[5], 1000 nM	–	1.1
[5], 3000 nM	–	0.949
[6], 4.1 nM	–	1.05
[6], 12.3 nM	–	0.959
[6], 37 nM	–	1.11
[6], 111.1 nM	–	1.14
[6], 333.3 nM	–	1.1
[6], 1000 nM	–	1.09
[6], 3000 nM	–	1.06
[7], 4.1 nM	–	0.985
[7], 12.3 nM	–	1.11
[7], 37 nM	–	1.03
[7], 111.1 nM	–	0.965
[7], 333.3 nM	–	1.01
[7], 1000 nM	–	1.24
[7], 3000 nM	–	1.13
[8], 4.1 nM	0.572	–
[8], 12.3 nM	1.82	–
[8], 37 nM	0.661	–
[8], 111.1 nM	0.582	–
[8], 333.3 nM	0.522	–
[8], 1000 nM	0.547	–
[8], 3000 nM	0.516	–
[9], 4.1 nM	0.729	–
[9], 12.3 nM	0.784	–
[9], 37 nM	0.999	–
[9], 111.1 nM	0.707	–
[9], 333.3 nM	0.864	–
[9], 1000 nM	0.673	–
[9], 3000 nM	0.713	–
[10], 4.1 nM	0.642	–
[10], 12.3 nM	0.425	–
[10], 37 nM	0.914	–
[10], 111.1 nM	0.692	–
[10], 333.3 nM	0.687	–
[10], 1000 nM	0.509	–
[10], 3000 nM	0.633	–
[11], 4.1 nM	0.541	–
[11], 12.3 nM	0.694	–
[11], 37 nM	0.736	–
[11], 111.1 nM	0.802	–
[11], 333.3 nM	0.203	–
[11], 1000 nM	0.509	–
[11], 3000 nM	0.646	–
[12], 4.1 nM	0.622	–
[12], 12.3 nM	0.866	–
[12], 37 nM	0.551	–
[12], 111.1 nM	0.616	–
[12], 333.3 nM	0.597	–
[12], 1000 nM	0.71	–
[12], 3000 nM	0.686	–
[13], 4.1 nM	0.6	–
[13], 12.3 nM	1.04	–
[13], 37 nM	0.554	–
[13], 111.1 nM	0.801	–
[13], 333.3 nM	0.597	–
[13], 1000 nM	0.686	–
[13], 3000 nM	0.742	–
[14], 4.1 nM	0.45	–
[14], 12.3 nM	0.575	–
[14], 37 nM	0.676	–
[14], 111.1 nM	0.814	–
[14], 333.3 nM	0.71	–
[14], 1000 nM	0.957	–
[14], 3000 nM	0.566	–

CO[C@H]1C(=O)[C@]2(C)[C@@H](OC)C[C@H]3OC[C@@]3(OC(C)=O)[C@H]2[C@H](OC(=O)c2ccccc2)[C@]2(O)C[C@H](OC(=O)[C@H](O)[C@@H](NC(=O)OC(C)(C)C)c3ccccc3)C(C)=C1C2(C)C [Cabazitaxel]
Conditions	phenotypic distance	surviving fraction
[1], 4.1 nM	–	0.197
[1], 12.3 nM	–	0.226
[1], 37 nM	–	0.203
[1], 111.1 nM	–	0.265
[1], 333.3 nM	–	0.25
[1], 1000 nM	–	0.245
[1], 3000 nM	–	0.32
[2], 4.1 nM	–	0.323
[2], 12.3 nM	–	0.353
[2], 37 nM	–	0.326
[2], 111.1 nM	–	0.325
[2], 333.3 nM	–	0.365
[2], 1000 nM	–	0.413
[2], 3000 nM	–	0.423
[3], 4.1 nM	–	0.367
[3], 12.3 nM	–	0.401
[3], 37 nM	–	0.344
[3], 111.1 nM	–	0.301
[3], 333.3 nM	–	0.412
[3], 1000 nM	–	0.412
[3], 3000 nM	–	0.534
[4], 4.1 nM	–	0.252
[4], 12.3 nM	–	0.164
[4], 37 nM	–	0.195
[4], 111.1 nM	–	0.192
[4], 333.3 nM	–	0.262
[4], 1000 nM	–	0.218
[4], 3000 nM	–	0.288
[5], 4.1 nM	–	0.399
[5], 12.3 nM	–	0.365
[5], 37 nM	–	0.434
[5], 111.1 nM	–	0.49
[5], 333.3 nM	–	0.476
[5], 1000 nM	–	0.608
[5], 3000 nM	–	0.531
[6], 4.1 nM	–	0.0988
[6], 12.3 nM	–	0.102
[6], 37 nM	–	0.0906
[6], 111.1 nM	–	0.117
[6], 333.3 nM	–	0.125
[6], 1000 nM	–	0.133
[6], 3000 nM	–	0.141
[7], 4.1 nM	–	0.374
[7], 12.3 nM	–	0.573
[7], 37 nM	–	0.435
[7], 111.1 nM	–	0.553
[7], 333.3 nM	–	0.535
[7], 1000 nM	–	0.406
[7], 3000 nM	–	0.63
[8], 4.1 nM	7.08	–
[8], 12.3 nM	7.55	–
[8], 37 nM	7.44	–
[8], 111.1 nM	6.21	–
[8], 333.3 nM	6.97	–
[8], 1000 nM	7.09	–
[8], 3000 nM	6.39	–
[9], 4.1 nM	7.35	–
[9], 12.3 nM	7.15	–
[9], 37 nM	6.53	–
[9], 111.1 nM	7.01	–
[9], 333.3 nM	7.6	–
[9], 1000 nM	8.51	–
[9], 3000 nM	7.5	–
[10], 4.1 nM	4.55	–
[10], 12.3 nM	4.4	–
[10], 37 nM	3.8	–
[10], 111.1 nM	4.96	–
[10], 333.3 nM	3.6	–
[10], 1000 nM	4.06	–
[10], 3000 nM	3.99	–
[11], 4.1 nM	4.63	–
[11], 12.3 nM	5.67	–
[11], 37 nM	4.24	–
[11], 111.1 nM	4.7	–
[11], 333.3 nM	4.56	–
[11], 1000 nM	4.89	–
[11], 3000 nM	3.99	–
[12], 4.1 nM	4.76	–
[12], 12.3 nM	5.24	–
[12], 37 nM	5.3	–
[12], 111.1 nM	4.8	–
[12], 333.3 nM	5.59	–
[12], 1000 nM	4.91	–
[12], 3000 nM	4.55	–
[13], 4.1 nM	6.8	–
[13], 12.3 nM	7.09	–
[13], 37 nM	5.83	–
[13], 111.1 nM	6.72	–
[13], 333.3 nM	6.55	–
[13], 1000 nM	6.56	–
[13], 3000 nM	6.86	–
[14], 4.1 nM	4.34	–
[14], 12.3 nM	4.07	–
[14], 37 nM	3.92	–
[14], 111.1 nM	4.49	–
[14], 333.3 nM	4.39	–
[14], 1000 nM	5.31	–
[14], 3000 nM	3.95	–

COc1cc(NS(C)(=O)=O)ccc1Nc1c2ccccc2nc2ccccc12 [Amsacrine]
Conditions	phenotypic distance	surviving fraction
[1], 4.1 nM	–	0.946
[1], 12.3 nM	–	0.807
[1], 37 nM	–	0.489
[1], 111.1 nM	–	0.414
[1], 333.3 nM	–	0.414
[1], 1000 nM	–	0.387
[1], 3000 nM	–	0.132
[2], 4.1 nM	–	0.908
[2], 12.3 nM	–	1.08
[2], 37 nM	–	0.72
[2], 111.1 nM	–	0.45
[2], 333.3 nM	–	0.388
[2], 1000 nM	–	0.197
[2], 3000 nM	–	0.0813
[3], 4.1 nM	–	0.875
[3], 12.3 nM	–	0.529
[3], 37 nM	–	0.427
[3], 111.1 nM	–	0.474
[3], 333.3 nM	–	0.374
[3], 1000 nM	–	0.467
[3], 3000 nM	–	0.126
[4], 4.1 nM	–	0.573
[4], 12.3 nM	–	0.509
[4], 37 nM	–	0.314
[4], 111.1 nM	–	0.247
[4], 333.3 nM	–	0.288
[4], 1000 nM	–	0.244
[4], 3000 nM	–	0.0342
[5], 4.1 nM	–	0.977
[5], 12.3 nM	–	0.867
[5], 37 nM	–	0.823
[5], 111.1 nM	–	0.552
[5], 333.3 nM	–	0.493
[5], 1000 nM	–	0.484
[5], 3000 nM	–	0.379
[6], 4.1 nM	–	0.935
[6], 12.3 nM	–	0.759
[6], 37 nM	–	0.484
[6], 111.1 nM	–	0.21
[6], 333.3 nM	–	0.192
[6], 1000 nM	–	0.161
[6], 3000 nM	–	0.0825
[7], 4.1 nM	–	0.745
[7], 12.3 nM	–	0.751
[7], 37 nM	–	0.593
[7], 111.1 nM	–	0.731
[7], 333.3 nM	–	0.745
[7], 1000 nM	–	0.645
[7], 3000 nM	–	0.363
[8], 4.1 nM	0.565	–
[8], 12.3 nM	1.43	–
[8], 37 nM	4.51	–
[8], 111.1 nM	6.51	–
[8], 333.3 nM	6.57	–
[8], 1000 nM	6.84	–
[8], 3000 nM	7.75	–
[9], 4.1 nM	0.893	–
[9], 12.3 nM	1.83	–
[9], 37 nM	2.5	–
[9], 111.1 nM	6.57	–
[9], 333.3 nM	6.68	–
[9], 1000 nM	5.68	–
[9], 3000 nM	7.87	–
[10], 4.1 nM	1.15	–
[10], 12.3 nM	2.1	–
[10], 37 nM	3.15	–
[10], 111.1 nM	2.93	–
[10], 333.3 nM	3.24	–
[10], 1000 nM	3.28	–
[10], 3000 nM	4.07	–
[11], 4.1 nM	1.63	–
[11], 12.3 nM	3.02	–
[11], 37 nM	3.7	–
[11], 111.1 nM	3.82	–
[11], 333.3 nM	2.97	–
[11], 1000 nM	3	–
[11], 3000 nM	6.79	–
[12], 4.1 nM	0.614	–
[12], 12.3 nM	1.45	–
[12], 37 nM	2.78	–
[12], 111.1 nM	6.15	–
[12], 333.3 nM	5.83	–
[12], 1000 nM	4.78	–
[12], 3000 nM	3.81	–
[13], 4.1 nM	0.741	–
[13], 12.3 nM	2.05	–
[13], 37 nM	4.75	–
[13], 111.1 nM	10.6	–
[13], 333.3 nM	10.7	–
[13], 1000 nM	8.66	–
[13], 3000 nM	6.92	–
[14], 4.1 nM	0.866	–
[14], 12.3 nM	1.42	–
[14], 37 nM	1.99	–
[14], 111.1 nM	2.25	–
[14], 333.3 nM	2.14	–
[14], 1000 nM	2.2	–
[14], 3000 nM	3.03	–
